According to ChEMBL document CHEMBL5038623, “Synthesis and bioactivities of new N-terminal dipeptide mimetics with aromatic amide moiety: Broad-spectrum antibacterial activity and high antineoplastic activity” (Eur J Med Chem, 2022):
Converted amounts (≈) assume the structure as drawn. The source made the active and inactive calls. No cut-off for these calls is given here.

Experiments:
Escherichia coli [1] = experiment: Antibiofilm activity against Escherichia coli at 80 ug/ml after 72 hrs by crystal violet staining based assay; assay type: functional; conditions: dose 80 µg/ml
SGC-7901 [2] = experiment: Induction of apoptosis in human SGC-7901 cells assessed as apoptosis rate at 5 ug/ml incubated for 24 hrs by annexin V-FITC/propidium iodide staining based flow cytometric analysis (reference value: 7.44%); assay type: functional; conditions: dose 5 µg/ml
Escherichia coli [3] = experiment: Antibacterial activity against Escherichia coli assessed as fold change of bacterial growth inhibition incubated with 50% blood (unknown origin); assay type: functional
Escherichia coli [4] = experiment: Antibiofilm activity against Escherichia coli at 20 ug/ml after 72 hrs by crystal violet staining based assay; assay type: functional; conditions: dose 20 µg/ml
Staphylococcus aureus [5] = experiment: Antibacterial activity against Staphylococcus aureus assessed as fold change of bacterial growth inhibition incubated with 50% blood (unknown origin); assay type: functional
SGC-7901 [6] = experiment: Induction of apoptosis in human SGC-7901 cells assessed as apoptosis rate at 25 ug/ml incubated for 24 hrs by annexin V-FITC/propidium iodide staining based flow cytometric analysis (reference value: 7.44%); assay type: functional; conditions: dose 25 µg/ml
Escherichia coli [7] = experiment: Antibacterial activity against Escherichia coli ATCC25922 assessed as zone of inhibition incubated for 12 hrs by disc diffusion method; assay type: functional, ATCC 25922
Staphylococcus aureus [8] = experiment: Bactericidal activity against Staphylococcus aureus assessed as changes in cell morphology incubated for 3 hrs by SEM analysis; assay type: functional, organism-based
L929 [9] = experiment: Cytotoxicity against mouse L929 cells assessed as reduction in cell viability at 1000 ug/ml incubated for 24 hrs by MTT assay; assay type: toxicity, cell-based; conditions: l929, 24 h, at 1000 µg/mL
Staphylococcus aureus [10] = experiment: Antibacterial activity against Staphylococcus aureus at sub-MIC measured treated over 16 serial passages after 24 hrs by resistance development assay; assay type: functional, organism-based
SGC-7901 [11] = experiment: Induction of apoptosis in human SGC-7901 cells assessed as apoptosis rate level at 50 ug/ml incubated for 24 hrs by annexin V-FITC/propidium iodide staining based flow cytometric analysis (reference value: 7.44%); assay type: functional; conditions: dose 50 µg/ml
Escherichia coli [12] = experiment: Bactericidal activity against Escherichia coli assessed as changes in cell morphology incubated for 3 hrs by SEM analysis; assay type: functional, organism-based
[13] = Selectivity index, HC50 for hemolytic activity in rabbit RBC to MIC for antibacterial activity against methicillin-resistant Staphylococcus aureus ATCC 33591; assay type: toxicity; conditions: rabbit red blood cells (RBC), read-out: Selectivity Index
L929 [14] = experiment: Cytotoxicity against mouse L929 cells assessed as reduction in cell viability at 15.6 ug/ml incubated for 24 hrs by MTT assay; assay type: toxicity, cell-based; conditions: l929, 24 h, dose 15.6 µg/ml
Staphylococcus aureus [15] = experiment: Antibacterial activity against methicillin-resistant Staphylococcus aureus ATCC 33591 assessed as MIC incubated for 12 hrs
Staphylococcus aureus [16] = experiment: Antibacterial activity against Staphylococcus aureus ATCC 6538 assessed as zone of inhibition incubated for 12 hrs by disc diffusion method; assay type: functional
Escherichia coli [17] = experiment: Antibacterial activity against Escherichia coli ATCC25922 assessed as reduction in microbial growth after 24 hrs by broth dilution method; assay type: functional; conditions: ATCC 25922
L929 [18] = experiment: Cytotoxicity against mouse L929 cells assessed as reduction in cell viability at 31.5 to 125 ug/ml incubated for 24 hrs by MTT assay; assay type: toxicity, cell-based; conditions: l929, 24 h, at 31.5 to 125 µg/mL, dose 31.5-125 µg/ml
Escherichia coli [19] = experiment: Antibiofilm activity against Escherichia coli at 160 ug/ml after 72 hrs by crystal violet staining based assay; assay type: functional; conditions: dose 160 µg/ml
Staphylococcus aureus [20] = experiment: Antibacterial activity against Staphylococcus aureus incubated with 50% plasma (unknown origin) measured after 8 hrs; assay type: functional
Escherichia coli [21] = experiment: Antibacterial activity against Escherichia coli assessed as fold change of bacterial growth inhibition incubated with 50% plasma (unknown origin); assay type: functional
Escherichia coli [22] = experiment: Antibiofilm activity against Escherichia coli at 320 ug/ml after 72 hrs by crystal violet staining based assay; assay type: functional; conditions: dose 320 µg/ml
Staphylococcus aureus [23] = experiment: Antibacterial activity against Staphylococcus aureus assessed as bacterial growth inhibition incubated with 50% serum (unknown origin); assay type: functional, organism-based
Escherichia coli [24] = experiment: Antibacterial activity against Escherichia coli at sub-MIC treated over 16 serial passages measured after 24 hrs by resistance development assay; assay type: functional, organism-based
Staphylococcus aureus [25] = experiment: Antibacterial activity against Staphylococcus aureus incubated with 50% plasma (unknown origin) measured after 4 hrs; assay type: functional, organism-based
Escherichia coli [26] = experiment: Bactericidal activity against Escherichia coli measured after 7 hrs by time-kill dilution assay relative to control; assay type: functional, organism-based
Escherichia coli [27] = experiment: Antibacterial activity against Escherichia coli assessed as bacterial growth inhibition incubated with 50% serum (unknown origin); assay type: functional, organism-based
Escherichia coli [28] = experiment: Bactericidal activity against Escherichia coli at 2MIC measured after 1 hrs by time-kill dilution assay relative to control; assay type: functional
[29] = Hemolytic activity in rabbit RBC measured after 1 hrs by microplate reader assay; assay type: toxicity, cell-based, Oryctolagus cuniculus, Erythrocyte; conditions: rabbit red blood cells (RBC)
Escherichia coli [30] = experiment: Antibiofilm activity against Escherichia coli at 40 ug/ml after 72 hrs by crystal violet staining based assay; assay type: functional; conditions: dose 40 µg/ml
Staphylococcus aureus [31] = experiment: Antibiofilm activity against Staphylococcus aureus at 160 ug/ml after 24 hrs by crystal violet staining based assay; assay type: functional; conditions: dose 160 µg/ml
Klebsiella pneumoniae = experiment: Antibacterial activity against Klebsiella pneumoniae ATCC 700603 assessed as reduction in microbial growth after 24 hrs by broth dilution method; assay type: functional
Staphylococcus aureus [32] = experiment: Antibiofilm activity against Staphylococcus aureus at 320 ug/ml after 24 hrs by crystal violet staining based assay; assay type: functional; conditions: dose 320 µg/ml
Staphylococcus aureus [33] = experiment: Antibacterial activity against Staphylococcus aureus assessed as fold change of bacterial growth inhibition incubated with 50% plasma (unknown origin); assay type: functional
SGC-7901 [34] = experiment: Cytotoxicity against human SGC-7901 cells assessed as reduction in cell viability after 24 hrs by MTT assay; assay type: functional, cell-based; conditions: SGC-7901, 24 h
Escherichia coli [35] = experiment: Bactericidal activity against Escherichia coli at 4MIC measured after 1 hrs by time-kill dilution assay relative to control; assay type: functional
Staphylococcus aureus [36] = experiment: Antibacterial activity against Staphylococcus aureus ATCC 6538 assessed as reduction in microbial growth after 24 hrs by broth dilution method; assay type: functional
Staphylococcus aureus [37] = experiment: Antibiofilm activity against Staphylococcus aureus at 80 ug/ml after 24 hrs by crystal violet staining based assay; assay type: functional; conditions: dose 80 µg/ml

C#Cc1ccc(NC(=O)[C@@H](N)C(C)C)cc1
Activity (Escherichia coli [1]): 77.3% | Activity (SGC-7901 [2]): 9.71% | fold change (FC) (Escherichia coli [3]): 4 | Activity (Escherichia coli [4]): 47.5% | fold change (FC) (Staphylococcus aureus [5]): 4 | Activity (SGC-7901 [6]): 11.46% | diameter of the inhibition zone (DIZ) (Escherichia coli [7]): 20 mm | Activity (Staphylococcus aureus [8]): Active | Activity (L929 [9]): 70% | Activity (Staphylococcus aureus [10]): inactive | Activity (SGC-7901 [11]): 50.36% | Activity (Escherichia coli [12]): Active | selectivity ratio [13]: 356 | Activity (L929 [14]): Non-Toxic | MIC (Staphylococcus aureus [15]): 5 µg/mL (≈ 23.1 µM) | diameter of the inhibition zone (DIZ) (Staphylococcus aureus [16]): 21.8 mm | MIC (Escherichia coli [17]): 5 µg/mL | Activity (L929 [18]): 85% | Activity (Escherichia coli [19]): 81.5% | fold change (FC) (Staphylococcus aureus [20]): 2 | fold change (FC) (Escherichia coli [21]): 2 | Activity (Escherichia coli [22]): 93.5% | Activity (Staphylococcus aureus [23]): inactive | Activity (Escherichia coli [24]): inactive | Activity (Staphylococcus aureus [25]): Active | Activity (Escherichia coli [26]): Active | Activity (Escherichia coli [27]): inactive | Activity (Escherichia coli [28]): 62.2% | HC50 at 1 h [29]: 891 µg/mL | Activity (Escherichia coli [30]): 66.2% | Activity (Staphylococcus aureus [31]): 85.4% | MIC (Klebsiella pneumoniae): 5 µg/mL | Activity (Staphylococcus aureus [32]): 91% | fold change (FC) (Staphylococcus aureus [33]): 2 | IC50 (SGC-7901 [34]): 70.8 µg/mL (≈ 327 µM) | Activity (Escherichia coli [35]): 0.4% | MIC (Staphylococcus aureus [36]): 2.5 µg/mL | Activity (Staphylococcus aureus [37]): 77.5%
